Source: BindingDB's records for patent US11117900 (Vertex Pharmaceuticals, 2021)

Target: Serine/threonine-protein kinase ATR (Homo sapiens, UniProt Q13535)
Assay: Inhibition Assay
Protocol: Compounds were screened for their ability to inhibit ATR kinase using a radioactive-phosphate incorporation assay. Assays were carried out in a mixture of 50 mM Tris/HCl (pH 7.5), 10 mM MgCl2 and 1 mM DTT. Final substrate concentrations were 10 μM [γ-33P]ATP (3 mCi 33P ATP/mmol ATP, Perkin Elmer) and 800 μM target peptide ([…]) (SEQ ID NO:1).Assays were carried out at 25° C. in the presence of 5 nM full-length ATR. An assay stock buffer solution was prepared containing all of the reagents listed above, with the exception of ATP and the test compound of interest. 13.5 μL of the stock solution was placed in a 96 well plate followed by addition of 2 μL of DMSO stock containing serial dilutions of the test compound (typically starting from a final concentration of 15 μM with 3-fold serial dilutions) in duplicate (final DMSO concentration 7%). The plate was pre-incubated for 10 minutes at 25° C. and the reaction initiated by addition of 15 μL [γ-33P]ATP (final concentration 10 μM).The reaction was stopped after 24 hours by the addition of […] containing 2 mM ATP. A multiscreen phosphocellulose filter 96-well plate (Millipore, Cat no. MAPHNOB50) was pretreated with 100 μL 0.2M phosphoric acid prior to the addition of […] of the stopped assay mixture. The plate was washed with 5×2004 0.2M phosphoric acid. […]

Serine/threonine-protein kinase ATR, sequence (Q13535 whole entry): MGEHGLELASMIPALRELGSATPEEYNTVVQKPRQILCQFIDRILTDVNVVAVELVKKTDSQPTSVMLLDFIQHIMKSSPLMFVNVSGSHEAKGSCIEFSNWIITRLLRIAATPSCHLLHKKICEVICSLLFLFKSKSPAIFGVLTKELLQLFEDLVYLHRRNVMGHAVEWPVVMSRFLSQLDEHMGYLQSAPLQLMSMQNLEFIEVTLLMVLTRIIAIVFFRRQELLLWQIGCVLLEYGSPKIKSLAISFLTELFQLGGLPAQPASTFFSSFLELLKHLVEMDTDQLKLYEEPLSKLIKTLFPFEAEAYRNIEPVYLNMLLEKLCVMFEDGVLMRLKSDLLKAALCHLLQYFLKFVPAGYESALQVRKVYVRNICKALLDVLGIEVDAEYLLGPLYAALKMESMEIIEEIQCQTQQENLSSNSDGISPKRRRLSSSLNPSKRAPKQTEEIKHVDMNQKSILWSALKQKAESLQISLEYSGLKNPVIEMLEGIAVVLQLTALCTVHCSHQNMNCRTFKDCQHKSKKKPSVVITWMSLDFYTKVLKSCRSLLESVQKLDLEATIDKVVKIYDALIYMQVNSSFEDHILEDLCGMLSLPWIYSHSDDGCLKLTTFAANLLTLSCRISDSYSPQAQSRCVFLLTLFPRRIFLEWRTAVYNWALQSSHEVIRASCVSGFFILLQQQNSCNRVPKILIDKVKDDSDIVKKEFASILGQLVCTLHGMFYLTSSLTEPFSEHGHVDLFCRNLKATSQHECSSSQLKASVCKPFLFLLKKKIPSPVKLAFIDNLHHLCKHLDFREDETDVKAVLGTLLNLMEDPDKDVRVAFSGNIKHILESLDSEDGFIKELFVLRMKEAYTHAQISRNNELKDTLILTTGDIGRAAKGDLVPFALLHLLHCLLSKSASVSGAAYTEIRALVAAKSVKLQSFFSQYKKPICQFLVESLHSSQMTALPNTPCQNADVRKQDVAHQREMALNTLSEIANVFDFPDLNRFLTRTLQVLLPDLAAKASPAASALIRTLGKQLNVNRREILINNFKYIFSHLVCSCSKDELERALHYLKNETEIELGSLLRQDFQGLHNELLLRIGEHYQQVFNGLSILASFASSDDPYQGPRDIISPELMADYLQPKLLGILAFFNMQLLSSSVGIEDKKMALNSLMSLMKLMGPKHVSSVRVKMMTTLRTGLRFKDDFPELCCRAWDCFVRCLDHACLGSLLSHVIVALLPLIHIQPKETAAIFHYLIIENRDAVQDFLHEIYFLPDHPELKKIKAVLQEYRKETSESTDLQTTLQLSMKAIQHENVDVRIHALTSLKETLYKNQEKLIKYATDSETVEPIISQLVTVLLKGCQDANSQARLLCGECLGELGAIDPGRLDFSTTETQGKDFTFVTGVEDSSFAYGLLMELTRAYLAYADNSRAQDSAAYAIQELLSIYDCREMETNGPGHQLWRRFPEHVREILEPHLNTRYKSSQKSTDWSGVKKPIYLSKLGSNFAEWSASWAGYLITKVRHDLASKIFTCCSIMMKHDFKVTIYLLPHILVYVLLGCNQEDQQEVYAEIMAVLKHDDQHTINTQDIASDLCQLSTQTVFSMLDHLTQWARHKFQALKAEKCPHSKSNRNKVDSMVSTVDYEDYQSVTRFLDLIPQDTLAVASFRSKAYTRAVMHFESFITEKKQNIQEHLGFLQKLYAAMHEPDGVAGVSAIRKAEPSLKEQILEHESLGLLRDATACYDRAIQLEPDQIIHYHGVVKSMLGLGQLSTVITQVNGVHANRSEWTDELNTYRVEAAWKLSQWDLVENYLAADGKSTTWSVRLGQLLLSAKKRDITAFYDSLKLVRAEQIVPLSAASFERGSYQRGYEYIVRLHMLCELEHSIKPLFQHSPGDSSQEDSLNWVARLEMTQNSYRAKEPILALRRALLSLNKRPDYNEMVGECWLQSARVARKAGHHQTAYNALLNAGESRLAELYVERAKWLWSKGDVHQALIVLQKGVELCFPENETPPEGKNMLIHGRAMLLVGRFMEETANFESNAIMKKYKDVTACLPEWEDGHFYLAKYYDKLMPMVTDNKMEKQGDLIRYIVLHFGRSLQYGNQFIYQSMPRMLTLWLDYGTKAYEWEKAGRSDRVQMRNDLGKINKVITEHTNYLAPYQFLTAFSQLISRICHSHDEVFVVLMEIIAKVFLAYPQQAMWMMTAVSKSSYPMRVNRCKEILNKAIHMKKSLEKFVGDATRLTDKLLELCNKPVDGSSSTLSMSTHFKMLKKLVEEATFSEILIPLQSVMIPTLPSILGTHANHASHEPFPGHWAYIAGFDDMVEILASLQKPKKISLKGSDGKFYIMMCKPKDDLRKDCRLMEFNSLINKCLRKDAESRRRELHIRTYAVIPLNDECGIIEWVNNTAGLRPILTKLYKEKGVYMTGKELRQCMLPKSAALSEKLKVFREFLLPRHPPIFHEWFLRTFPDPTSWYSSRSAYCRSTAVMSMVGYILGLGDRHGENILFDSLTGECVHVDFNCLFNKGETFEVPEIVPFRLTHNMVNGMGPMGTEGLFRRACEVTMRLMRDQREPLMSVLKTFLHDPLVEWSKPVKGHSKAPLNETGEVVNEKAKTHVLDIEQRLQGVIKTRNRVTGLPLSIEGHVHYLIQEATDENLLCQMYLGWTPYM

With `C[N+]1([O-])CCCC(c2ccncc2NC(=O)c2c(N)nn3cc(F)cnc23)C1` (stereo unspecified) [US11117900, Compound I-C-9] the Ki was “in the range around 505 nM”.
